Ends that are not written are not given here.
Columns and labels:
[1] = tested on: TNBS-induced colitis; experiment: TNBS colitis model, oral administration; details: oral 5 mg/kg; compared with vehicle treated mice
[2] = in vitro; details: male, human, human serum
[3] = 100% human serum, 37°C, RP-HPLC at 214 nm, triplicate; for relative rate of degradation in human serum over 24 h: 0, 3, 8, 24 h

Molecule | remaining at 4 h, 20 μM [2] [%] | relative rate of degradation in human serum over 24 h [3] | other results
O=C(O)c1cc(/N=N/c2ccc(S(=O)(=O)Nc3ccccn3)cc2)ccc1O [sulfasalazine] | – | – | colon length after oral administration [1]: Neither ES2-10 nor sulfasalazine were distinct from the vehicle treated mice
PSKEKADLGKYKA [AIP1-13] | < 10 | – | –
SQKEKDLLKE [ES2-10] | < 10 | – | –
TPEEHDLLMDLMGDPKKAEE [AIP2-20] | – | degraded slower than AIP1-13 and ES2-10 | detection of peptide in human serum after 24 h [3]: could still be detected after 24 h; remaining at 8 h, 20 μM [2]: > 50%
TPEEHPLLMDLMGDPKKAEE [AIP2-20D6P] | – | degraded slower than AIP1-13 and ES2-10 but was less stable than AIP2-20 | –

— publication PMC9524151, “Peptides derived from hookworm anti-inflammatory proteins suppress inducible colitis in mice and inflammatory cytokine production by human cells” (Frontiers in Medicine, 2022)
